# Test results taken from publication PMC8812735, “Discovery of triterpenoids as potent dual inhibitors of pancreatic lipase and human carboxylesterase 1” (Journal of Enzyme Inhibition and Medicinal Chemistry, 2022).
# Target: T1, hCES2A (Homo sapiens, UniProt O00748)
# T1 sequence (O00748 27-559): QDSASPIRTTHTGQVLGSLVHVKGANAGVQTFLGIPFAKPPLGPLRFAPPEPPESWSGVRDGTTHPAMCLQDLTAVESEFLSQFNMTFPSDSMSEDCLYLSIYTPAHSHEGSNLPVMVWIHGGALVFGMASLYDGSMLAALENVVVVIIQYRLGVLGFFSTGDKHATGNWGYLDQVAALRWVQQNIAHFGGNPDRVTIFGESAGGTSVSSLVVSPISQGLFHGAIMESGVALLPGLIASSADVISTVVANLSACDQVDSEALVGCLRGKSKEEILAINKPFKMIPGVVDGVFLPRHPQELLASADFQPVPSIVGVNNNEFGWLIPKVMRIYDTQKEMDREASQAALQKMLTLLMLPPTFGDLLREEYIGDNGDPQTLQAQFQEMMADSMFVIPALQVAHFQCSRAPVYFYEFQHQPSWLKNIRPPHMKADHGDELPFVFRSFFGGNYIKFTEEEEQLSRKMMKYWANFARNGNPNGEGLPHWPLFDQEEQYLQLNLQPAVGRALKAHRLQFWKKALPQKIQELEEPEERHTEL
# Assay: Inhibition of hCES2A-mediated FD hydrolysis
# Type: biochemical
# Conditions: not given
# Text: […] (FD) was used as the hCES2A specific probe substrate to assay the inhibitory effect of natural triterpenoids on hCES2A. The entire detailed operation process refers to the previously reported method, and finally the FD mixture was put into the multi-mode microplate reader for analysis and detection.
row,SMILES,IC50 [µM]
1,"C[C@H]1[C@H](C)CC[C@]2(C(=O)O)CC[C@]3(C)C(=CC[C@@H]4[C@@]5(C)C[C@@H](O)[C@H](O)[C@@](C)(CO)[C@@H]5CC[C@]43C)[C@H]12 [Compound 7, asiatic acid]",65.1 ± 6.41

# Same assay, conditions: FD substrate, mean ± SD (n = 3); read-out: IC50 (µM) hCES2A
row,SMILES,IC50 [µM]
1,"CC1(C)CC[C@]2(C(=O)O)CC[C@]3(C)C(=CC[C@@H]4[C@@]5(C)CC[C@H](O)[C@@](C)(CO)[C@@H]5CC[C@]43C)[C@@H]2C1 [Compound 3, hederagenin]",9.22 ± 1.43

# Target: T2, hCES1A (Homo sapiens, UniProt P23141)
# T2 construct: tissue Bioreclamation IVT lot No. X008067; host or cells: pooled human liver microsomes from 50 donors
# T2 sequence (P23141 18-567): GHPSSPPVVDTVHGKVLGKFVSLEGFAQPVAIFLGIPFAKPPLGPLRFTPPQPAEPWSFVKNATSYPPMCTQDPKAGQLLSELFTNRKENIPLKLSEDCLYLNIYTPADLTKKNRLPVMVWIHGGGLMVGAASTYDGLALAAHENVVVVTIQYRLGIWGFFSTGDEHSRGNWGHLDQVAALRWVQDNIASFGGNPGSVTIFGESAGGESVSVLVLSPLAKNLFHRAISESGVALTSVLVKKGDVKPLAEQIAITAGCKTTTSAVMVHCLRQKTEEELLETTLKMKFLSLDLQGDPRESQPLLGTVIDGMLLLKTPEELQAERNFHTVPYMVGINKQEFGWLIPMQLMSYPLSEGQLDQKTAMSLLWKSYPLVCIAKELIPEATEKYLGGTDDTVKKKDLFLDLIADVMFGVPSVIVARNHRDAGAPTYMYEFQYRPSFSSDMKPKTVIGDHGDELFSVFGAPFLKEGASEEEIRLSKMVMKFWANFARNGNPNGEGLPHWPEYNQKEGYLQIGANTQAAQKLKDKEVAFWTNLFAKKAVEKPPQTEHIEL
# Assay: Inhibition of hCES1A-mediated NLMe hydrolysis in human liver microsomes
# Type: biochemical
# Conditions: not given
# Experimental: N-Alkylated D-luciferin methyl ester (NLMe), a Specific probe for hCES1A[45], was used for assessing the inhibitory effects for triterpenoids, and BNPP was used as a positive inhibitor of hCES1A. […] Then NLMe (2 µL, 0.15 mM) was added to start the reaction. After shaking the reaction in 37 °C incubator for 10 min, 50 µL of reaction solution was removed and mixed with LDR (50 µL) to terminate the reaction. A multi-mode microplate reader was used to detect the luminescence signal of NL (the hydrolysed metabolite of NLMe). The luminescence product of NL was measured at 580 nm (gain: 140). The final volume ratio of DMSO was less than 1% (V/V).
# (§1) Subsequently, various concentrations of substrates (selected according to Km) and different concentrations of inhibitors were used to determine the corresponding reaction rate, and the second slope graph of the Lineweaver–Burk diagram was used as a function of the inhibitor to calculate the corresponding inhibition constant (Ki) value. All kinetic data were fitted by the following kinetic equations (a–c), for competitive (a), non-competitive (b) and mixed inhibition (c): (a) V=(VmaxS)/[Km(1+I/Ki)+S] (b) V=(VmaxS)/[(Km+S)×(1+I/Ki)] (c) V=(VmaxS)/[(Km+S)×(1+I/αKi)] where V is the hydrolytic velocity of the reaction, Vmax is the maximum velocity. S and I are substrate (4-MUO, NLMe) and inhibitor (compound 39/41) concentrations, respectively. Ki is the inhibition constant of the tested inhibitor against the target PL and hCES1A; Km is the Michaelis constant (the substrate concentration at half of the Vmax).
# All measurements were made in triplicate and the data obtained in the experiment were shown as mean ± SD. The IC50 and Ki values of the compounds with strong inhibitory effect were evaluated by nonlinear regression with graphpad prism 7.0 software (GraphPad Software, Inc., La Jolla, CA).
row,SMILES,IC50 [µM]
1,"C[C@H]1[C@H](C)CC[C@]2(C(=O)O)CC[C@]3(C)C(=CC[C@@H]4[C@@]5(C)C[C@@H](O)[C@H](O)[C@@](C)(CO)[C@@H]5CC[C@]43C)[C@H]12 [Compound 7, asiatic acid]",0.17 ± 0.02
2,"CC1=C(O)C(=O)C=C2C1=CC=C1[C@@]2(C)CC[C@@]2(C)[C@@H]3C[C@](C)(C(=O)O)CC[C@]3(C)CC[C@]12C [Compound 11, Celastrol]",14.3 ± 3.03
3,"C=C(C)[C@@H]1CC[C@]2(CO)CC[C@]3(C)[C@H](CC[C@@H]4[C@@]5(C)CC[C@H](O)C(C)(C)[C@@H]5CC[C@]43C)[C@@H]12 [Compound 12, betulin]",> 100
4,"CC1(C)CC[C@]2(C(=O)O)CC[C@]3(C)C(=CC[C@@H]4[C@@]5(C)C[C@@H](O)[C@H](O)C(C)(C)[C@@H]5CC[C@]43C)[C@@H]2C1 [Compound 2, maslinic acid]",0.12 ± 0.01
5,"C[C@H]1[C@H](C)CC[C@]2(C(=O)O)CC[C@]3(C)C(=CC[C@@H]4[C@@]5(C)C[C@@H](O)[C@H](O)C(C)(C)[C@@H]5CC[C@]43C)[C@H]12 [Compound 6, corosolic acid]",0.34 ± 0.04
6,CC1CCC2(C(=O)O)CCC3(C)C(=CCC4C5(C)CCC(OC(=O)CCC(=O)O)C(C)(C)C5CCC43C)C2C1C (stereo not drawn) [Compound 42],0.028 ± 0.003

# Same assay, conditions: NLMe substrate, HLM, mean ± SD (n = 3); read-out: IC50 (µM) hCES1A
row,SMILES,IC50 [µM]
1,CC1(C)CCC2(C(=O)O)CCC3(C)C(=CCC4C5(C)CCC(OC(=O)CCC(=O)O)C(C)(C)C5CCC43C)C2C1 (stereo not drawn) [Compound 33],0.043 ± 0.003
2,CCCCCC(=O)OC1CCC2(C)C(CCC3(C)C2CC=C2C4CC(C)(C)CCC4(C(=O)O)CCC23C)C1(C)C (stereo not drawn) [Compound 35],1.82 ± 0.29
3,"CC1(C)CC[C@]2(C(=O)O)CC[C@]3(C)C(=CC[C@@H]4[C@@]5(C)CC[C@H](O)[C@@](C)(CO)[C@@H]5CC[C@]43C)[C@@H]2C1 [Compound 3, hederagenin]",0.04 ± 0.004
4,CC1(C)CCC2(C(=O)O)CCC3(C)C(=CCC4C5(C)CCC(=O)C(C)(C)C5CCC43C)C2C1 (stereo not drawn) [Compound 30],0.047 ± 0.003
5,CCCC(=O)OC1CCC2(C)C(CCC3(C)C2CC=C2C4CC(C)(C)CCC4(C(=O)O)CCC23C)C1(C)C (stereo not drawn) [Compound 34],0.24 ± 0.049
6,"C[C@H]1[C@H](C)CC[C@]2(C)CC[C@]3(C)C(=CC[C@@H]4[C@@]5(C)CC[C@@H](O)[C@](C)(C(=O)O)[C@@H]5CC[C@]43C)[C@H]12 [Compound 8, β-Boswellic acid]",> 100
7,CC1(C)CCC2(C(N)=O)CCC3(C)C(=CCC4C5(C)CCC(O)C(C)(C)C5CCC43C)C2C1 (stereo not drawn) [Compound 38],0.48 ± 0.06
8,"CC1(C)CC[C@]2(C(=O)O)CC[C@]3(C)C(=CC[C@@H]4[C@@]5(C)CC[C@H](O)C(C)(C)[C@@H]5CC[C@]43C)[C@@H]2C1 [Compound 1, oleanolic acid]",0.04 ± 0.003

# Target: T3, Pancreatic lipase (PL) (Sus scrofa, UniProt P00591)
# T3 construct: purchased Sigma Aldrich type II, Lot.SLBN9099V
# T3 sequence (P00591 1-450): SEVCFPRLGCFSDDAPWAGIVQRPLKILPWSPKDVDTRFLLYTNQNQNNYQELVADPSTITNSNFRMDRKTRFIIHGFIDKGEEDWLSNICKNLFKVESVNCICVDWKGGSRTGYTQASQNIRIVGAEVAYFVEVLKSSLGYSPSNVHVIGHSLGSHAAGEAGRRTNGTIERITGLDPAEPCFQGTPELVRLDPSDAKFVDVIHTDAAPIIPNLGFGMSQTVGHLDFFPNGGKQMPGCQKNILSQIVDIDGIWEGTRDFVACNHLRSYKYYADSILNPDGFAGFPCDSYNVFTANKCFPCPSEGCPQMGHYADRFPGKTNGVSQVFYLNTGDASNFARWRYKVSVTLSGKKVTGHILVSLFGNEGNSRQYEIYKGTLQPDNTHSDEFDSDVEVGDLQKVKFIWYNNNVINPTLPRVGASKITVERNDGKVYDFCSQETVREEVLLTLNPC
# Assay: Inhibition of PL-mediated 4-MUO hydrolysis
# Type: biochemical
# Conditions: 4-MUO substrate, mean ± SD (n = 3)
# Experimental: In addition, the background fluorescence in the absence of an enzyme source (PL) (add the same amount of citrate-Na2HPO4 buffer) was measured. […] Then start the reaction by adding 2 µL of 4-MUO probe (3 µM, final concentration). The fluorescence signal of 4-MU (hydrolytic metabolite) was detected by multi-mode microplate reader (SpectraMax M4, Molecular Devices, Urstein, Austria) with continuous oscillation for 20 min and recorded and analysed at 60 s intervals. The excitation wavelength and emission wavelength of 4-MU were set at 340 nm and 460 nm, respectively, and the gain value was 500.
# as §1
# All measurements were made in triplicate and the data obtained in the experiment were shown as mean ± SD.
row,SMILES,IC50 [µM]
1,"C[C@H]1[C@H](C)CC[C@]2(C(=O)O)CC[C@]3(C)C(=CC[C@@H]4[C@@]5(C)C[C@@H](O)[C@H](O)[C@@](C)(CO)[C@@H]5CC[C@]43C)[C@H]12 [Compound 7, asiatic acid]",12.9 ± 1.87
2,CC1(C)CCC2(C(=O)O)CCC3(C)C(=CCC4C5(C)CCC(OC(=O)CCC(=O)O)C(C)(C)C5CCC43C)C2C1 (stereo not drawn) [Compound 33],36.4 ± 5.17
3,"CC1=C(O)C(=O)C=C2C1=CC=C1[C@@]2(C)CC[C@@]2(C)[C@@H]3C[C@](C)(C(=O)O)CC[C@]3(C)CC[C@]12C [Compound 11, Celastrol]",4.69 ± 0.37
4,CCCCCC(=O)OC1CCC2(C)C(CCC3(C)C2CC=C2C4CC(C)(C)CCC4(C(=O)O)CCC23C)C1(C)C (stereo not drawn) [Compound 35],> 100
5,"C=C(C)[C@@H]1CC[C@]2(CO)CC[C@]3(C)[C@H](CC[C@@H]4[C@@]5(C)CC[C@H](O)C(C)(C)[C@@H]5CC[C@]43C)[C@@H]12 [Compound 12, betulin]",7.47 ± 1.68
6,"CC1(C)CC[C@]2(C(=O)O)CC[C@]3(C)C(=CC[C@@H]4[C@@]5(C)CC[C@H](O)[C@@](C)(CO)[C@@H]5CC[C@]43C)[C@@H]2C1 [Compound 3, hederagenin]",13 ± 2.03
7,CC1(C)CCC2(C(=O)O)CCC3(C)C(=CCC4C5(C)CCC(=O)C(C)(C)C5CCC43C)C2C1 (stereo not drawn) [Compound 30],7.51 ± 1.08
8,"CC1(C)CC[C@]2(C(=O)O)CC[C@]3(C)C(=CC[C@@H]4[C@@]5(C)C[C@@H](O)[C@H](O)C(C)(C)[C@@H]5CC[C@]43C)[C@@H]2C1 [Compound 2, maslinic acid]",16 ± 4.59
9,CCCC(=O)OC1CCC2(C)C(CCC3(C)C2CC=C2C4CC(C)(C)CCC4(C(=O)O)CCC23C)C1(C)C (stereo not drawn) [Compound 34],> 100
10,"C[C@H]1[C@H](C)CC[C@]2(C(=O)O)CC[C@]3(C)C(=CC[C@@H]4[C@@]5(C)C[C@@H](O)[C@H](O)C(C)(C)[C@@H]5CC[C@]43C)[C@H]12 [Compound 6, corosolic acid]",12.8 ± 1.44
11,"C[C@H]1[C@H](C)CC[C@]2(C)CC[C@]3(C)C(=CC[C@@H]4[C@@]5(C)CC[C@@H](O)[C@](C)(C(=O)O)[C@@H]5CC[C@]43C)[C@H]12 [Compound 8, β-Boswellic acid]",0.42 ± 0.05
12,CC1CCC2(C(=O)O)CCC3(C)C(=CCC4C5(C)CCC(OC(=O)CCC(=O)O)C(C)(C)C5CCC43C)C2C1C (stereo not drawn) [Compound 42],20.9 ± 1.78
13,CC1(C)CCC2(C(N)=O)CCC3(C)C(=CCC4C5(C)CCC(O)C(C)(C)C5CCC43C)C2C1 (stereo not drawn) [Compound 38],7.83 ± 1.21
14,"CC1(C)CC[C@]2(C(=O)O)CC[C@]3(C)C(=CC[C@@H]4[C@@]5(C)CC[C@H](O)C(C)(C)[C@@H]5CC[C@]43C)[C@@H]2C1 [Compound 1, oleanolic acid]",8.63 ± 0.84
